Experimental data: patent US9822138B2, “Antiviral beta-amino acid ester phosphodiamide compounds” (Merck Sharp & Dohme Corp., priority 2015, dated 2017)
Where two headings read alike, the source gives them in different places.

Experiments:
HIV-1 (H9/IIIB strain) = assay: microbe, parasite or virus in culture; format: cell-based; settings: MT4-GFP cells infected with HIV-1 H9/IIIB, inhibition of reproductive ratio R0
Procedure: Assessing Antiviral Potency in a Multiple Round HIV-1 Infection Assay (Viking Assay)
The antiviral activity of the tenofovir prodrugs of the Examples herein was assessed in an assay that measures the rate of replication of HIV in cell culture, termed the Viking assay (Viral KINetics in Green cells) and performed as follows. HIV-1 replication was monitored using MT4-gag-GFP clone D3 (hereafter designated MT4-GFP), which are MT-4 cells modified to harbor a GFP reporter gene, the expression of which is dependent on the HIV-1 expressed proteins tat and rev. Productive infection of an MT4-GFP cell with HIV-1 results in GFP expression approximately 24 h post-infection. MT4-GFP cells were maintained at 37° C./5% CO2/90% relative humidity in RPMI 1640 supplemented with 10% fetal bovine serum, 100 U/ml penicillin/streptomycin, and 400 μg/ml G418 to maintain the reporter gene. For infections, MT4-GFP cells were placed in the same medium lacking G418 and infected overnight with HIV-1 (H9/IIIB strain) virus at an approximate multiplicity of infection of 0.01 in the same incubation conditions. Cells were then washed and re-suspended in either RPMI 1640 supplemented with 10% or 50% normal human serum (NHS) at 1.6×10^5 cells/mL (10% NHS or 50% NHS, respectively). Compound plates were prepared by dispensing compounds dissolved in DMSO into wells of 384 well poly-D-lysine-coated plates (0.2 μl/well) using an ECHO acoustic dispenser. Each compound was tested in a 10-point serial 3-fold dilution (typical final concentrations: 8.4 μM-0.42 nM). Controls included no inhibitor (DMSO only) and a combination of three antiviral agents (efavirenz, indinavir, an in-house integrase strand transfer inhibitor at final concentrations of 4 μM each). Cells were added ([…]) to compound plates and the infected cells were maintained at 37° C./5% CO2/90% relative humidity.
Infected cells were quantified at two time points, ˜48 h and ˜72 h post-infection, by counting the number of green cells in each well using an Acumen eX3 scanner. […] Inhibition of R0 is calculated for each well, and IC50s determined by non-linear 4-parameter curve fitting.

[1] = Prodrug stability assay in bio-relevant media (FaSSIF with pancreatin; GI tract stability); format: in vitro ADME; settings: parent prodrug area at 5 h divided by area at 0 h; 37° C.; 0.5 mg/mL pancreatin in FaSSIF
Procedure: Prodrug Stability Assay in Bio-Relevant Media
The following assay was employed to evaluate the stability of the prodrugs in simulated gastrointestinal tract conditions. Preparation of fasted state simulated intestinal fluid (FaSSIF) using Phares SIF Powder was carried out according to protocols from Phare Drug Delivery AG (Baselland, Switzerland). For sample preparation, 10 μL stock solutions (10 mM) of prodrug substance in DMSO was added to 990 μL of 0.5 mg/mL Pancreatin solution (Fisher CAS#8049-47-6) in FaSSIF. Two samples were prepared for each compound at initial. If the sample was clear solution at the beginning, ran one sample directly as initial by HPLC; if the sample was not clear at starting, diluted the sample by 100% ACN. Put the other sample under 37° C. and observed the sample at 5 h time-point. At 5 h time point, if the sample was clear solution then performed HPLC analysis directly; if it was not clear solution, diluted the sample by 100% ACN and assayed by HPLC. All the samples were vortexed for 3 min and observed before injection. For the diluted samples, the area will be multiplied by a factor when data analysis. The analysis was carried out with an Agilent 1100 series HPLC with autosampler. The column was usually a Poroshell 120 EC-C18, 4.6×50 mm, 2.7 μm. The flow rate was 1.8 mL/min, and the injection volume was 5 or 10 μL. UV detection was in the range 210-400 nm. The mobile phase consisted of solvent A (water plus 10 mM tetrabutylammonium bromide) and solvent B (acetonitrile) with a gradient of 90% solvent A at 0 min changing to 95% solvent B over 6 min, maintained for 1.5 min, then reverting to 90% solvent A over 1.6 min. The area of the parent in prodrug at 5 h time point was divided by the area of the parent in prodrug at 0 h time point, to generate the % claimed parent ratio, which are summarized in Table 5 for GI Tract stability.

[2] = 10% normal human serum, read-out: Viking, IC50 (10% NHS)
[3] = 50% normal human serum, read-out: Viking, IC50 (50% NHS)
[4] = Human immunodeficiency virus 1, 10% normal human serum, read-out: Viking, IC50 (10% NHS)
[5] = Human immunodeficiency virus 1, 50% normal human serum, read-out: Viking, IC50 (50% NHS)

| GI Tract stability [1] [%] | SMILES | IC50 (HIV-1 (H9/IIIB strain); [2]) [nM] | IC50 (HIV-1 (H9/IIIB strain); [3]) [nM] | IC50 (HIV-1 (H9/IIIB strain); [4]) [nM] | IC50 (HIV-1 (H9/IIIB strain); [5]) [nM] | IC50 (HIV-1 (H9/IIIB strain); Human immunodeficiency virus 1, IIIB, 10% normal human serum, read-out: Viking, IC50 (10% NHS)) [nM] | IC50 (HIV-1 (H9/IIIB strain); Human immunodeficiency virus 1, IIIB, 50% normal human serum, read-out: Viking, IC50 (50% NHS)) [nM] |
| --- | --- | --- | --- | --- | --- | --- | --- |
| 56.2 | CCCCCOC(=O)[C@H](C)NP(=O)(CO[C@H](C)Cn1cnc2c(N)ncnc21)NC[C@H](C)C(=O)OC(C)C (single isomer, unassigned) [Example 16B] | 7.3 | 28.3 |  |  |  |  |
| 99.6 | CC(C)OC(=O)C[C@@H](C)NP(=O)(CO[C@H](C)Cn1cnc2c(N)ncnc21)N[C@@H](C)C(=O)OC(C)C (single isomer, unassigned) [Example 9A] | 25.3 | 66.7 |  |  |  |  |
| 0 | CCCCCCCOC(=O)[C@H](C)NP(=O)(CO[C@H](C)Cn1cnc2c(N)ncnc21)NC[C@H](C)C(=O)OC(C)C (single isomer, unassigned) [Example 17B] | 2.2 | 12 |  |  |  |  |
| 100 | CC(C)OC(=O)C[C@H](C)NP(=O)(CO[C@H](C)Cn1cnc2c(N)ncnc21)N[C@H](C)C(=O)OC1CCC1 (single isomer, unassigned) [Example 19A] | 51.2 | 195 |  |  |  |  |
| 96.9 | CCCCCOC(=O)C(C)(C)NP(=O)(CO[C@H](C)Cn1cnc2c(N)ncnc21)N[C@@H](C)CC(=O)OC(C)C (single isomer, unassigned) [Example 26B] | 1.5 | 6.8 |  |  |  |  |
| 54.8 | CC(C)OC(=O)[C@H](C)CNP(=O)(CO[C@H](C)Cn1cnc2c(N)ncnc21)N[C@@H](C)C(=O)OC(C)C (single isomer, unassigned) [Example 10A] | 10.6 | 97.2 |  |  |  |  |
| 30.5 | CCCCCCCOC(=O)[C@H](C)NP(=O)(CO[C@H](C)Cn1cnc2c(N)ncnc21)NC[C@H](C)C(=O)OC(C)C (single isomer, unassigned) [Example 17A] | 6.5 | 43 |  |  |  |  |
| 76.4 | CC(C)OC(=O)[C@@H](C)CNP(=O)(CO[C@H](C)Cn1cnc2c(N)ncnc21)N[C@@H](C)C(=O)OC1CCCC1 (single isomer, unassigned) [Example 11B] | 20.9 | 68.4 |  |  |  |  |
| 37.7 | CC(C)OC(=O)[C@@H](C)CNP(=O)(CO[C@H](C)Cn1cnc2c(N)ncnc21)N[C@@H](C)C(=O)OC1CCC1 (single isomer, unassigned) [Example 12B] | 20.9 | 63.2 |  |  |  |  |
| 99.2 | CC(C)OC(=O)[C@@H](C)CNP(=O)(CO[C@H](C)Cn1cnc2c(N)ncnc21)N[C@H](C)C(=O)OC1CCCC1 (single isomer, unassigned) [Example 22B] | 83.8 | 291 |  |  |  |  |
| 99.3 | CC(C)OC(=O)[C@@H](C)CNP(=O)(CO[C@H](C)Cn1cnc2c(N)ncnc21)N[C@H](C)C(=O)OC1CCC1 (single isomer, unassigned) [Example 20B] | 112 | 432 |  |  |  |  |
| 101 | CC(C)OC(=O)CCNP(=O)(CO[C@H](C)Cn1cnc2c(N)ncnc21)N[C@H](C)C(=O)OC1CCC1 (single isomer, unassigned) [Example 23B] | 121 | 488 |  |  |  |  |
| 12.7 | CCCCCOC(=O)[C@H](C)NP(=O)(CO[C@H](C)Cn1cnc2c(N)ncnc21)NC[C@H](C)C(=O)OC(C)C (single isomer, unassigned) [Example 16A] |  |  |  |  | 6.1 | 18.6 |
| 60.6 | CC(C)COC(=O)[C@H](C)NP(=O)(CO[C@H](C)Cn1cnc2c(N)ncnc21)NC[C@H](C)C(=O)OC(C)C (single isomer, unassigned) [Example 14B] | 15.7 | 51.6 |  |  |  |  |
| 83 | CCCCCCOC(=O)C(C)(C)NP(=O)(CO[C@H](C)Cn1cnc2c(N)ncnc21)N[C@@H](CC(=O)OC(C)C)C(C)C (single isomer, unassigned) [Example 28B] | 2.1 | 5.7 |  |  |  |  |
| 89.5 | CC(C)OC(=O)C[C@H](C)NP(=O)(CO[C@H](C)Cn1cnc2c(N)ncnc21)N[C@@H](C)C(=O)OC(C)C (single isomer, unassigned) [Example 8A] | 26.5 | 38.2 |  |  |  |  |
| 38.7 | CC(C)OC(=O)[C@@H](C)CNP(=O)(CO[C@H](C)Cn1cnc2c(N)ncnc21)N[C@@H](C)C(=O)OC1CCCCC1 (single isomer, unassigned) [Example 13A] | 8.7 | 56.4 |  |  |  |  |
| 65.8 | CCCCOC(=O)[C@H](C)NP(=O)(CO[C@H](C)Cn1cnc2c(N)ncnc21)NC[C@H](C)C(=O)OC(C)C (single isomer, unassigned) [Example 15B] | 11.7 | 79.4 |  |  |  |  |

| SMILES | GI Tract stability [1] [%] | IC50 (HIV-1 (H9/IIIB strain); [2]) [nM] | IC50 (HIV-1 (H9/IIIB strain); [3]) [nM] | IC50 (HIV-1 (H9/IIIB strain); [4]) [nM] | IC50 (HIV-1 (H9/IIIB strain); [5]) [nM] | IC50 (HIV-1 (H9/IIIB strain); Human immunodeficiency virus 1, IIIB, 10% normal human serum, read-out: Viking, IC50 (10% NHS)) [nM] | IC50 (HIV-1 (H9/IIIB strain); Human immunodeficiency virus 1, IIIB, 50% normal human serum, read-out: Viking, IC50 (50% NHS)) [nM] |
| --- | --- | --- | --- | --- | --- | --- | --- |
| CC(C)OC(=O)C[C@@H](C)NP(=O)(CO[C@H](C)Cn1cnc2c(N)ncnc21)N[C@H](C)C(=O)OC1CCC1 (single isomer, unassigned) [Example 18A] | 99.2 |  |  | 65 | 134 |  |  |
| CCCCCOC(=O)C(C)(C)N[P@](=O)(CO[C@H](C)Cn1cnc2c(N)ncnc21)N[C@@H](CC(=O)OC(C)C)C(C)C (single isomer, unassigned) [Example 24A] | 76 |  |  | 0.8 | 4.4 |  |  |
| CC(C)OC(=O)[C@H](C)NP(=O)(CO[C@H](C)Cn1cnc2c(N)ncnc21)NC[C@H](C)C(=O)OC(C)C (single isomer, unassigned) [Example 6A] | 99.5 |  |  | 20 | 59.3 |  |  |
| CC(C)OC(=O)C[C@H](N[P@](=O)(CO[C@H](C)Cn1cnc2c(N)ncnc21)NC(C)(C)C(=O)OC(C)C)C(C)C [Example 25B] | 100 |  |  | 590 | > 2000 |  |  |
| CC(C)OC(=O)CCNP(=O)(CO[C@H](C)Cn1cnc2c(N)ncnc21)N[C@@H](C)C(=O)OC(C)C (single isomer, unassigned) [Example 7A] | 98.7 |  |  | 26.4 | 44.1 |  |  |
| CC(C)OC(=O)C[C@H](N[P@@](=O)(CO[C@H](C)Cn1cnc2c(N)ncnc21)NC(C)(C)C(=O)OC(C)C)C(C)C (single isomer, unassigned) [Example 25A] | 99.0 |  |  | 4.7 | 12 |  |  |
